Measurements taken from patent US20150329558A1, “FUSED HETEROCYCLIC COMPOUNDS AS ION CHANNEL MODULATORS” (Gilead Sciences, Inc., priority 2011, published 2015).
Like-named read-outs stand apart in the source and are kept apart here.

What was measured:
[1] = molecular target: wild-type human cardiac sodium channel, hNav1.5 (late INa) (Homo sapiens, UniProt Q14524); assay: Late INa screening assay (QPatch whole cell patch clamp); type: cell-based
In short: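 HEK293 cells stably expressing hNav1.5 alpha subunit without beta subunits, QPatch automated whole-cell clamp at 23-25° C, CsF-based internal solution pH 7.4. Late INa induced by 10 μM tefluthrin; 250 ms steps to −20 mV from −120 mV at 0.1 Hz, compounds at 1 μM. Percent block of mean current 225–250 ms into the step.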

[2] = Microsomal stability assay, rat; type: in vitro ADME; conditions: metabolic stability, rat liver microsomes 0.5 mg/mL, substrate 3 uM
In short: (§1)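 Liver microsomes at 0.5 mg/mL protein in 100 mM KPO4 buffer, incubated with 3 uM compound and NADPH-regenerating system, run in duplicate. Samples taken at 2, 12, 25, 45 and 65 min and quenched in MeOH/ACN/water before analysis.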

[3] = Microsomal stability assay, human; type: in vitro ADME; conditions: metabolic stability, human liver microsomes 0.5 mg/mL, substrate 3 uM
In short: as §1

[4] = % inhibition at 1 μM, read-out: NAv1.5*-LATE-
[5] = percent block of late INa, compound at 1 μM, 10 μM Tefluthrin, HEK293 hNav1.5, read-out: Late INa 1 μM

wild-type human cardiac sodium channel, hNav1.5 (late INa), sequence (Q14524 whole entry): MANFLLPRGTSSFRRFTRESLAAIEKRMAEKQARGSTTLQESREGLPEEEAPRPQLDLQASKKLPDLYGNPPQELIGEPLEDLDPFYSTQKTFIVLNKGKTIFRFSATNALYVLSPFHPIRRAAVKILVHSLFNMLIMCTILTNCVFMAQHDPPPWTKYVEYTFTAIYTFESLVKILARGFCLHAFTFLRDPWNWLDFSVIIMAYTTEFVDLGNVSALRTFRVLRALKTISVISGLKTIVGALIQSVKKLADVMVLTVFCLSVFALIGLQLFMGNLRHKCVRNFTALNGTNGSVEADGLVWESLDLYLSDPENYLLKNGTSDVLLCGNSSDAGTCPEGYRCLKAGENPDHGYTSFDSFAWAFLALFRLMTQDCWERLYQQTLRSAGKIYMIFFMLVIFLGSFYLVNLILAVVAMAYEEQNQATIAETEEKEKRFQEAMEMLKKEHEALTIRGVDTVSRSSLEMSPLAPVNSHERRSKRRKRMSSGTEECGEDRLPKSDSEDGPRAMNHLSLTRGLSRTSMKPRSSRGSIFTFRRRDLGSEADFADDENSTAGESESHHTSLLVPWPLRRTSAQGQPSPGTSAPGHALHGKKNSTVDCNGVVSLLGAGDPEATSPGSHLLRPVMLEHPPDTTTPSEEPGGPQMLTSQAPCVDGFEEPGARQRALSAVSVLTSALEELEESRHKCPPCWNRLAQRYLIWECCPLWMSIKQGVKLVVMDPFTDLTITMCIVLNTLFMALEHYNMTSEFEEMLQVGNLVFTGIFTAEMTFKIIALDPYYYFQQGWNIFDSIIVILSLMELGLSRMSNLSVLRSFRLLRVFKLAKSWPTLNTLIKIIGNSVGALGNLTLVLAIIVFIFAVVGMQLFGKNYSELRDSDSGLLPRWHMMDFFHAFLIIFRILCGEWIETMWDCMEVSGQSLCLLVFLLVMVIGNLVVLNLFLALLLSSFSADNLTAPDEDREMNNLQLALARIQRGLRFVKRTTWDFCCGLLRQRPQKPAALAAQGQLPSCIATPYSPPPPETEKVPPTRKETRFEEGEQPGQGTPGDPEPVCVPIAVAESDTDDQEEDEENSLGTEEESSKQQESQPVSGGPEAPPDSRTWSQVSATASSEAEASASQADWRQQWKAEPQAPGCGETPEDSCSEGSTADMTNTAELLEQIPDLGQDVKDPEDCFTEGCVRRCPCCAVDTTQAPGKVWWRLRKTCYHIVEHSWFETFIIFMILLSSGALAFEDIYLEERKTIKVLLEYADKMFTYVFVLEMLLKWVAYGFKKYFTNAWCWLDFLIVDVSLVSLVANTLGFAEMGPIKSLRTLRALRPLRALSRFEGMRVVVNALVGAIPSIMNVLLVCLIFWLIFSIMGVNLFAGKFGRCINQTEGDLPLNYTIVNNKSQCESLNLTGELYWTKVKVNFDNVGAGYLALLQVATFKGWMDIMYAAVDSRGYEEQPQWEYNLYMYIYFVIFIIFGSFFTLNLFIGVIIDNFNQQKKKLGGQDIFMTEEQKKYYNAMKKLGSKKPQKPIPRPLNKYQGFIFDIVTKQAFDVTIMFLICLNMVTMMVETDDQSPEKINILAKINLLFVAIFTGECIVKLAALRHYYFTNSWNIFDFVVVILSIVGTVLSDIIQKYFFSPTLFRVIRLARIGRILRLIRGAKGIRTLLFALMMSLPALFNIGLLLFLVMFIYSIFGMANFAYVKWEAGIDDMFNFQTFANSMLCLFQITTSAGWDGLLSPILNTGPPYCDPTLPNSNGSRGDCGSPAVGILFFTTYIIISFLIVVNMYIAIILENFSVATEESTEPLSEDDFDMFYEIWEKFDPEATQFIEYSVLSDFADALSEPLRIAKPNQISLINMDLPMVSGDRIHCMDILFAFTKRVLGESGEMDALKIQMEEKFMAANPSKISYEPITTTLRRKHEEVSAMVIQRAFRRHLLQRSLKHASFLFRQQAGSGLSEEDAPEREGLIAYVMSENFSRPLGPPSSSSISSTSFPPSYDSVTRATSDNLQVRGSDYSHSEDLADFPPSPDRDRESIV

| Compound | MS Rat THalf [2] | MS Human THalf [3] | inhibition at 1 µM [1, 4] | inhibition at 1 µM [1, 5] |
| --- | --- | --- | --- | --- |
| Cc1noc(Cn2nnc3ccc(-c4ccc(OC(F)(F)F)cc4)cc3c2=O)n1 [II-3, 3-((3-methyl-1,2,4-oxadiazol-5-yl)methyl)-6-(4-(trifluoromethoxy)phenyl)benzo[d][1,2,3]triazin-4(3H)-one] | 249 min | 336 min | 53% | 53% |
| O=c1c2cc(-c3ccc(OC(F)(F)F)cc3)ccc2nnn1Cc1noc(C2CC2)n1 [II-14, 3-((5-cyclopropyl-1,2,4-oxadiazol-3-yl)methyl)-6-(4-(trifluoromethoxy)phenyl)benzo[d][1,2,3]triazin-4(3H)-one] | 375 min | 236 min | 68% | 68% |
| O=c1c2cc(-c3ccc(OC(F)(F)F)cc3)ccc2nnn1CCc1ccncn1 [II-17, 3-(2-(pyrimidin-4-yl)ethyl)-6-(4-(trifluoromethoxy)phenyl)benzo[d][1,2,3]triazin-4(3H)-one] | 24 min | 101 min | 61% | 61% |
| O=c1c2cc(-c3ccc(OC(F)(F)F)cc3)ccc2nnn1CCc1ncccn1 [II-18, 3-(2-(pyrimidin-2-yl)ethyl)-6-(4-(trifluoromethoxy)phenyl)benzo[d][1,2,3]triazin-4(3H)-one] | 49 min | 130 min | 66% | 66% |
| O=c1c2cc(-c3ccc(OC(F)(F)F)cc3)ccc2nnn1CCOc1ncccn1 [II-32, 3-(2-(pyrimidin-2-yloxy)ethyl)-6-(4-(trifluoromethoxy)phenyl)benzo[d][1,2,3]triazin-4(3H)-one] | 237 min | 392 min | 64% | 64% |
| N#Cc1ccnc(OCCn2nnc3ccc(-c4ccc(OC(F)(F)F)cc4)cc3c2=O)n1 [II-36, 2-(2-(4-oxo-6-(4-(trifluoromethoxy)phenyl)benzo[d][1,2,3]triazin-3(4H)-yl)ethoxy)pyrimidine-4-carbonitrile] | 108 min | 157 min | 43% | 43% |
| O=c1c2cc(-c3ccc(OC(F)(F)F)cc3)ccc2nnn1C1CCNCC1 [II-38, 3-(piperidin-4-yl)-6-(4-(trifluoromethoxy)phenyl)benzo[d][1,2,3]triazin-4(3H)-one] | 298 min | > 395 min | 33% | 33% |
| O=c1c2cc(-c3ccc(OC(F)(F)F)cc3)ccc2nnn1CC1(CN2CCOCC2)CC1 [II-40, 3-((1-(morpholinomethyl)cyclopropyl)methyl)-6-(4-(trifluoromethoxy)phenyl)benzo[d][1,2,3]triazin-4(3H)-one] | 2 min | 2 min | 48% | 48% |
| O=c1c2cc(-c3ccc(OC(F)(F)F)cc3)ccc2nnn1Cc1noc(-c2ccccn2)n1 [II-54, 3-((5-(pyridin-2-yl)-1,2,4-oxadiazol-3-yl)methyl)-6-(4-(trifluoromethoxy)phenyl)benzo[d][1,2,3]triazin-4(3H)-one] | 176 min | 329 min | 52% | 52% |
| O=c1c2cc(-c3ccc(OC(F)(F)F)cc3)ccc2nnn1Cc1nnc(C2CC2)o1 [II-67, 3-((5-cyclopropyl-1,3,4-oxadiazol-2-yl)methyl)-6-(4-(trifluoromethoxy)phenyl)benzo[d][1,2,3]triazin-4(3H)-one] | > 395 min | > 395 min | 47% | 47% |
| Cc1ncc(Cn2nnc3ccc(-c4ccc(OC(F)(F)F)cc4)cc3c2=O)o1 [II-95, 3-((2-methyloxazol-5-yl)methyl)-6-(4-(trifluoromethoxy)phenyl)benzo[d][1,2,3]triazin-4(3H)-one] | 121 min | 280 min | 36% | 36% |
| Cc1noc(Cn2cnc3ccc(-c4ccc(OC(F)(F)F)cc4)cc3c2=O)n1 [IV-6, 3-((3-methyl-1,2,4-oxadiazol-5-yl)methyl)-6-(4-(trifluoromethoxy)phenyl)quinazolin-4(3H)-one] | 190 min | 280 min | 49% | 49% |
| Cc1nc(Cn2cnc3ccc(-c4ccc(OC(F)(F)F)cc4)cc3c2=O)no1 [IV-9, 3-((5-methyl-1,2,4-oxadiazol-3-yl)methyl)-6-(4-(trifluoromethoxy)phenyl)quinazolin-4(3H)-one] | 243 min | > 395 min | 42% | 42% |
| O=C1c2cc(-c3ccc(OC(F)(F)F)cc3)ccc2OCN1Cc1ncccn1 [VIII-20, 3-(pyrimidin-2-ylmethyl)-6-(4-(trifluoromethoxy)phenyl)-2H-benzo[e][1,3]oxazin-4(3H)-one] | – | – | 62% | 62% |

Second part, led by results:

| MS Rat THalf [2] | MS Human THalf [3] | Compound | inhibition at 1 µM [1, 4] | inhibition at 1 µM [1, 5] |
| --- | --- | --- | --- | --- |
| 56 min | 30 min | O=c1c2cc(-c3ccc(OC(F)(F)F)cc3)ccc2cnn1Cc1ncccn1 [III-5, 2-(pyrimidin-2-ylmethyl)-7-(4-(trifluoromethoxy)phenyl)phthalazin-1(2H)-one] | 44% | 44% |
| 81 min | 100 min | O=c1c2cc(-c3ccc(OC(F)(F)F)cc3)ccc2cnn1CCn1cccn1 [III-9, 2-(2-(1H-pyrazol-1-yl)ethyl)-7-(4-(trifluoromethoxy)phenyl)phthalazin-1(2H)-one] | 57% | 57% |
| 72 min | 130 min | COc1cc(OC)nc(Cn2ncc3ccc(-c4ccc(OC(F)(F)F)cc4)cc3c2=O)n1 [III-19, 2-((4,6-dimethoxypyrimidin-2-yl)methyl)-7-(4-(trifluoromethoxy)phenyl)phthalazin-1 (2H)-one] | 56% | 56% |
| 103 min | 170 min | O=c1c2cc(-c3ccc(OC(F)(F)F)cc3)ccc2cnn1CCOc1ncccn1 [III-28, 2-(2-(pyrimidin-2-yloxy)ethyl)-7-(4-(trifluoromethoxy)phenyl)phthalazin-1 (2H)-one] | 75% | 75% |
| 150 min | > 395 min | O=C1c2cc(-c3ccc(OC(F)(F)F)cc3)ccc2CCN1Cc1ncccn1 [IX-1, 2-(pyrimidin-2-ylmethyl)-7-(4-(trifluoromethoxy)phenyl)-3,4-dihydroisoquinolin-1(2H)-one] | 32% | 32% |
| 355 min | 304 min | O=C1c2cc(-c3ccc(C(F)(F)F)cc3)ccc2CCN1Cc1ncccn1 [IX-3, 2-(pyrimidin-2-ylmethyl)-7-(4-(trifluoromethyl)phenyl)-3,4-dihydroisoquinolin-1(2H)-one] | 29% | 29% |
| > 395 min | > 395 min | O=C(c1ncccn1)N1CCc2ccc(-c3ccc(C(F)(F)F)cc3)cc2C1 [IX-7, pyrimidin-2-yl(7-(4-(trifluoromethyl)phenyl)-3,4-dihydroisoquinolin-2(1H)-yl)methanone] | 46% | 46% |
| 302 min | 257 min | O=C(c1cccnn1)N1CCc2ccc(-c3ccc(C(F)(F)F)cc3)cc2C1 [IX-17, Pyridazin-3-yl(7-(4-(trifluoromethyl)phenyl)-3,4-dihydroisoquinolin-2 (1H)-yl) methanone] | 39% | 39% |
| 281 min | > 395 min | Cn1cnc(C(=O)N2CCc3ccc(-c4ccc(C(F)(F)F)cc4)cc3C2)c1 [IX-39, (1-methyl-1H-imidazol-4-yl)(7-(4-(trifluoromethyl)phenyl)-3,4-dihydroisoquinolin-2(1H)-yl)methanone] | 30% | 30% |
| 211 min | 125 min | O=C1c2cc(-c3ccc(C(F)(F)F)cc3)ccc2OCN1Cc1ccccn1 [VIII-1, 3-(pyridin-2-ylmethyl)-6-(4-(trifluoromethyl)phenyl)-2H-benzo[e][1,3]oxazin-4(3H)-one] | 52% | 52% |
| 227 min | 285 min | O=C1c2cc(-c3ccc(OC(F)(F)F)cc3)ccc2OCN1Cc1ccccn1 [VIII-3, 3-(pyridin-2-ylmethyl)-6-(4-(trifluoromethoxy)phenyl)-2H-benzo[e][1,3]oxazin-4(3H)-one] | 58% | 58% |
| 152 min | 221 min | CC1Oc2ccc(-c3ccc(OC(F)(F)F)cc3)cc2C(=O)N1Cc1ncccn1 (stereo not drawn) [VIII-7, 2-methyl-3-(pyrimidin-2-ylmethyl)-6-(4-(trifluoromethoxy)phenyl)-2H-benzo[e][1,3]oxazin-4(3H)-one] | 22% | 22% |
